Results from patent publication US10017514B2, “6,7-dihydropyrazolo[1,5-α]pyrazin-4(5H)-one compounds and their use as negative allosteric modulators of mGluR2 receptors” (Janssen Pharmaceutica NV, priority 2014, dated 2018).

Columns and labels:
human mGlu2 receptor = target: T1, human mGlu2 receptor (Homo sapiens, UniProt Q14416); experiment: [35S]GTPγS binding assay, mGluR2 negative allosteric modulation; format: biochemical; settings: for Emax: maximal % inhibition relative to the control glutamate response (EC80 glutamate), read-out: GTPγS-hmGluR2 anGT Emax; for IC50: membranes from CHO cells transfected with human mGlu2 receptor, glutamate ~EC80 (60 μM), read-out: GTPγS-hmGluR2 anGT pIC50 (converted)
T1 construct: expressed in transfected cells; host or cells: CHO cells (membrane preparation)
Experimental: Total reaction volume was 200 μl. […] Membrane-bound radioactivity was counted in a Topcount.

rats = experiment: Reversal of the effect of the mGluR2 PAM JNJ-42153605-induced inhibition of scopolamine-induced hyperlocomotion; format: in vivo, rat; settings: Rattus norvegicus; rats; PO, 60 min pretreatment; JNJ-42153605 20 mg/kg i.v. + scopolamine 0.16 mg/kg i.v.; criterion total distance >1500 cm in 30 min; read-out: SCOP JNJ-42153605 ED50
Experimental: Motor activity was measured in microprocessor-based motor activity arenas (closed gray PVC cylinders with a height of 39 cm and a diameter of 31 cm). Each arena was placed on an infrared LED (8×8 LEDs) lit box (white PVC squared box; 40×40 cm^2; height 12.5 cm. An infrared-sensitive tube camera and a white light source were mounted to the ceiling above the observation chamber to track the animal. […] Noldus, Wageningen, The Netherlands). The intensity of the light within the activity cages (measured in the centre at the level of the floor) ranged between 4 and 8 LUX. The rats were pretreated with test compound or vehicle at 60 min before the start of the activity recordings and placed into individual cages. […] WO2010/130424; Cid et al. J. Med.

T1 sequence (Q14416 19-872): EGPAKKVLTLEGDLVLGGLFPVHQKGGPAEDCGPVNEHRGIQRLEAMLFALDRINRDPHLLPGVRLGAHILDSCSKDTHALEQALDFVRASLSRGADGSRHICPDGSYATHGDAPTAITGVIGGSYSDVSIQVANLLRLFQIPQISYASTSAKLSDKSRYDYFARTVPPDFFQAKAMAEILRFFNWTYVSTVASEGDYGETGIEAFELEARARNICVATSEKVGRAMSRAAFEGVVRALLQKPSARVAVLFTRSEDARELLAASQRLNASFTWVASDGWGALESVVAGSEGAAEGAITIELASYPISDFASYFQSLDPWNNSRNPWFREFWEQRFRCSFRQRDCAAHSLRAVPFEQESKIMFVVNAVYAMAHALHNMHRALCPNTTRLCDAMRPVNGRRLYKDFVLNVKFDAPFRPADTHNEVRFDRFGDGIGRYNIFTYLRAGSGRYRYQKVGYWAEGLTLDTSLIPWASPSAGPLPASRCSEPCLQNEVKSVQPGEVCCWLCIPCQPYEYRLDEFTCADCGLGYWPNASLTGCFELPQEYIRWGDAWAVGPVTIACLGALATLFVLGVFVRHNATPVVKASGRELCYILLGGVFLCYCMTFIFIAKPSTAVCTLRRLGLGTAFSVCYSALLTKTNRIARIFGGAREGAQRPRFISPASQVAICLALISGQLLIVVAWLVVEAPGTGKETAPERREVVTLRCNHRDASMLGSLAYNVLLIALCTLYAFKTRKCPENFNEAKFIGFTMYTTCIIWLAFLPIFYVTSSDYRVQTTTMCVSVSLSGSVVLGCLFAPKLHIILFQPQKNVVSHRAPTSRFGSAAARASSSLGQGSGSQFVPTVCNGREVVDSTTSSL

| Emax (human mGlu2 receptor) [%] | IC50 (human mGlu2 receptor) [nM] | melting point [°C] | SMILES | ED50 (rats) [mg/kg] |
| --- | --- | --- | --- | --- |
| 106 | 4.79 | 188.25 | C[C@H]1CN(c2ccc(C(F)(F)F)c(Cl)c2)C(=O)c2c(-c3cc(-c4ccccn4)on3)cnn21 [Co. No. 10, (7S)-5-[3-chloro-4-(trifluoromethyl)phenyl]-7-methyl-3-[5-(2-pyridyl)isoxazol-3-yl]-6,7-dihydropyrazolo[1,5-a]pyrazin-4-one] | > 0.63 |
| 110 | 2.45 | 156.64 | C[C@H]1CN(c2ccc(C(F)(F)F)c(Cl)c2)C(=O)c2c(-c3cc(-c4cccnc4)on3)cnn21 [Co. No. 11, (7S)-5-[3-chloro-4-(trifluoromethyl)phenyl]-7-methyl-3-[5-(3-pyridyl)isoxazol-3-yl]-6,7-dihydropyrazolo[1,5-a]pyrazin-4-one] | > 0.63 |
| 108 | 6.17 | 168.58 | Cc1cncc(-c2cc(-c3cnn4c3C(=O)N(c3ccc(C(F)(F)F)c(Cl)c3)C[C@@H]4C)no2)c1 [Co. No. 12, (7S)-5-[3-chloro-4-(trifluoromethyl)phenyl]-7-methyl-3-[5-(5-methyl-3-pyridyl)isoxazol-3-yl]-6,7-dihydropyrazolo[1,5-a]pyrazin-4-one] | > 0.63 |
| 108 | 5.5 | 120.21 | Cc1cc(N2C[C@H](C)n3ncc(-c4cc(-c5cccnc5)on4)c3C2=O)ccc1C(F)(F)F [Co. No. 15, (7S)-7-methyl-5-[3-methyl-4-(trifluoromethyl)phenyl]-3-[5-(3-pyridyl)isoxazol-3-yl]-6,7-dihydropyrazolo[1,5-a]pyrazin-4-one] | > 0.63 |
| 109 | 2.24 | 197.33 | Cc1ccncc1-c1cc(-c2cnn3c2C(=O)N(c2ccc(C(F)(F)F)cc2)C[C@@H]3C)no1 [Co. No. 18, (7S)-7-Methyl-3-[5-(4-methyl-3-pyridyl)isoxazol-3-yl]-5-[4-(trifluoromethyl)phenyl]-6,7-dihydropyrazolo[1,5-a]pyrazin-4-one] | 0.51 |
| 113 | 1.41 | 149.63 | Cc1ccncc1-c1cc(-c2cnn3c2C(=O)N(c2ccc(C(F)(F)F)c(Cl)c2)C[C@@H]3C)no1 [Co. No. 20, (7S)-5-[3-chloro-4-(trifluoromethyl)phenyl]-7-methyl-3-[5-(4-methyl-3-pyridyl)isoxazol-3-yl]-6,7-dihydropyrazolo[1,5-a]pyrazin-4-one] | 0.51 |
| 103 | 6.61 | 197.03 | C[C@H]1CN(c2ccc(C(F)(F)F)c(Cl)c2)C(=O)c2c(-c3cc(-c4cncc(F)c4)on3)cnn21 [Co. No. 21, (7S)-5-[3-chloro-4-(trifluoromethyl)phenyl]-3-[5-(5-fluoro-3-pyridyl)isoxazol-3-yl]-7-methyl-6,7-dihydropyrazolo[1,5-a]pyrazin-4-one] | > 0.63 |
| 110 | 2.09 | 171.25 | Cc1ccncc1-c1cc(-c2cnn3c2C(=O)N(c2ccc(C(F)(F)F)c(C)c2)C[C@@H]3C)no1 [Co. No. 22, (7S)-7-methyl-3-[5-(4-methyl-3-pyridyl)isoxazol-3-yl]-5-[3-methyl-4-(trifluoromethyl)phenyl]-6,7-dihydropyrazolo[1,5-a]pyrazin-4-one] | > 0.63 |
